This passage reports Ratio and MIC results from ChEMBL document CHEMBL3351986, “Probing linker design in citric acid-ciprofloxacin conjugates” (2014).

Structures are written as SMILES. In brackets after ≈: the same amount, converted by molar mass. Where only a bound is given, the exact number is not on record here.

One assay deals with Staphylococcus aureus. The experiment in a line: Ratio of compound MIC to ciprofloxacin MIC for Staphylococcus aureus NCTC 13142 after 18 hrs by micro dilution method. Format: functional.
Conditions: not given
On to `O=C(O)CC(O)(CC(=O)N1CCN(c2cc3c(cc2F)c(=O)c(C(=O)O)cn3C2CC2)CC1)C(=O)O` (stereo unspecified), for which the Ratio turned out to be 10.5.

The test system of a further assay is Staphylococcus aureus. The experiment in a line: Ratio of compound MIC to ciprofloxacin MIC for Staphylococcus aureus BIG 52 after 18 hrs by micro dilution method. Format: functional.
Conditions: not given
Consider `O=C(O)CC(O)(CC(=O)N1CCN(c2cc3c(cc2F)c(=O)c(C(=O)O)cn3C2CC2)CC1)C(=O)O` (stereo unspecified), for which the Ratio is on record as 20.9.

The test system of another assay is Staphylococcus epidermidis. As to the kind of experiment: Ratio of compound MIC to ciprofloxacin MIC for Staphylococcus epidermidis NCTC 11047 after 18 hrs by micro dilution method. Format: functional.
Conditions: not given
Regarding `O=C(O)CC(O)(CC(=O)N1CCN(c2cc3c(cc2F)c(=O)c(C(=O)O)cn3C2CC2)CC1)C(=O)O` (stereo unspecified), the Ratio was determined as 83.8.

For a further assay, the system named is Staphylococcus epidermidis. As to the kind of experiment: Ratio of compound MIC to ciprofloxacin MIC for Staphylococcus epidermidis NCTC 2749 after 18 hrs by micro dilution method. The format is functional.
Conditions: not given
For the compound `O=C(O)CC(O)(CC(=O)N1CCN(c2cc3c(cc2F)c(=O)c(C(=O)O)cn3C2CC2)CC1)C(=O)O` (stereo unspecified), the Ratio was found to be 20.9.

In another assay the test system is Staphylococcus haemolyticus. As to the kind of experiment: Ratio of compound MIC to ciprofloxacin MIC for Staphylococcus haemolyticus NCTC 11042 after 18 hrs by micro dilution method. The format is functional.
Conditions: not given
On to `O=C(O)CC(O)(CC(=O)N1CCN(c2cc3c(cc2F)c(=O)c(C(=O)O)cn3C2CC2)CC1)C(=O)O` (stereo unspecified), for which the Ratio came out at 83.8.

The subject of a further assay is Escherichia coli. The experiment in a line: Ratio of compound MIC to ciprofloxacin MIC for Escherichia coli NCTC 10418 after 18 hrs by micro dilution method.
Conditions: not given
The format is functional.
`O=C(O)CC(O)(CC(=O)N1CCN(c2cc3c(cc2F)c(=O)c(C(=O)O)cn3C2CC2)CC1)C(=O)O` (stereo unspecified): the Ratio was found to be 2.8.

In a further assay the test system is Pseudomonas aeruginosa. As to the kind of experiment: Ratio of compound MIC to ciprofloxacin MIC for Pseudomonas aeruginosa environmental isolate after 18 hrs by micro dilution method. The format is functional.
Conditions: not given
In the case of `O=C(O)CC(O)(CC(=O)N1CCN(c2cc3c(cc2F)c(=O)c(C(=O)O)cn3C2CC2)CC1)C(=O)O` (stereo unspecified), the Ratio turned out to be 10.5.

A further assay concerns Pseudomonas aeruginosa. The experiment in a line: Ratio of compound MIC to ciprofloxacin MIC for Pseudomonas aeruginosa BIG 37 clinical isolate after 18 hrs by micro dilution method.
Conditions: not given
The format is functional.
As to `O=C(O)CC(O)(CC(=O)N1CCN(c2cc3c(cc2F)c(=O)c(C(=O)O)cn3C2CC2)CC1)C(=O)O` (stereo unspecified), the Ratio stood at 5.2.

A further assay relates to Pseudomonas aeruginosa. As to the kind of experiment: Ratio of compound MIC to ciprofloxacin MIC for Pseudomonas aeruginosa NCTC 10662 after 18 hrs by micro dilution method. Format: functional.
Conditions: not given
In the case of `O=C(O)CC(O)(CC(=O)N1CCN(c2cc3c(cc2F)c(=O)c(C(=O)O)cn3C2CC2)CC1)C(=O)O` (stereo unspecified), the Ratio is 10.5.

The next assay concerns Pseudomonas aeruginosa. The experiment in a line: Ratio of compound MIC to ciprofloxacin MIC for Pseudomonas aeruginosa BIG 63 after 18 hrs by micro dilution method. Format: functional.
Conditions: not given
For the compound `O=C(O)CC(O)(CC(=O)N1CCN(c2cc3c(cc2F)c(=O)c(C(=O)O)cn3C2CC2)CC1)C(=O)O` (stereo unspecified), the Ratio is 10.5.

The test system of a further assay is Serratia marcescens. As to the kind of experiment: Ratio of compound MIC to ciprofloxacin MIC for Serratia marcescens BIG 11 NCTC 1377 after 18 hrs by micro dilution method. The format is functional.
Conditions: not given
`O=C(O)CC(O)(CC(=O)N1CCN(c2cc3c(cc2F)c(=O)c(C(=O)O)cn3C2CC2)CC1)C(=O)O` (stereo unspecified): the Ratio was 11.

The next assay deals with Burkholderia cepacia. The experiment in a line: Ratio of compound MIC to ciprofloxacin MIC for Burkholderia cepacia BIG 9 NCTC 10744 after 18 hrs by micro dilution method. The format is functional.
Conditions: not given
As for `O=C(O)CC(O)(CC(=O)N1CCN(c2cc3c(cc2F)c(=O)c(C(=O)O)cn3C2CC2)CC1)C(=O)O` (stereo unspecified), the Ratio turned out to be 20.9.

Another assay concerns Burkholderia cepacia. As to the kind of experiment: Ratio of compound MIC to ciprofloxacin MIC for Burkholderia cepacia BIG 117 after 18 hrs by micro dilution method.
Conditions: not given
The format is functional.
With `O=C(O)CC(O)(CC(=O)N1CCN(c2cc3c(cc2F)c(=O)c(C(=O)O)cn3C2CC2)CC1)C(=O)O` (stereo unspecified), the Ratio is listed as 10.5.

A further assay has as its system Burkholderia cepacia. The experiment in a line: Ratio of compound MIC to ciprofloxacin MIC for Burkholderia cepacia BIG 118 after 18 hrs by micro dilution method.
Conditions: not given
The format is functional.
`O=C(O)CC(O)(CC(=O)N1CCN(c2cc3c(cc2F)c(=O)c(C(=O)O)cn3C2CC2)CC1)C(=O)O` (stereo unspecified): the Ratio was found to be 41.8.

A further assay has as its system Burkholderia cepacia. As to the kind of experiment: Ratio of compound MIC to ciprofloxacin MIC for Burkholderia cepacia BIG 120 after 18 hrs by micro dilution method. The format is functional.
Conditions: not given
With `O=C(O)CC(O)(CC(=O)N1CCN(c2cc3c(cc2F)c(=O)c(C(=O)O)cn3C2CC2)CC1)C(=O)O` (stereo unspecified), the Ratio was 5.2.

A further assay relates to Stenotrophomonas maltophilia. The experiment in a line: Ratio of compound MIC to ciprofloxacin MIC for Stenotrophomonas maltophilia N1127 after 18 hrs by micro dilution method. Format: functional.
Conditions: not given
Turning to `O=C(O)CC(O)(CC(=O)N1CCN(c2cc3c(cc2F)c(=O)c(C(=O)O)cn3C2CC2)CC1)C(=O)O` (stereo unspecified), the Ratio is 10.5.

Another assay concerns Stenotrophomonas maltophilia. The experiment in a line: Ratio of compound MIC to ciprofloxacin MIC for Stenotrophomonas maltophilia N1119 after 18 hrs by micro dilution method. The format is functional.
Conditions: not given
On to `O=C(O)CC(O)(CC(=O)N1CCN(c2cc3c(cc2F)c(=O)c(C(=O)O)cn3C2CC2)CC1)C(=O)O` (stereo unspecified), for which the Ratio was 20.1.

A further assay has as its system Staphylococcus aureus. The experiment in a line: Antimicrobial activity against Staphylococcus aureus NCTC 13142 after 18 hrs by micro dilution method. Format: functional. As to conditions: NCTC 13142, 18 h.
In the case of `O=C(O)CC(O)(CC(=O)N1CCN(c2cc3c(cc2F)c(=O)c(C(=O)O)cn3C2CC2)CC1)C(=O)O` (stereo unspecified), the MIC was determined as 8 µg/mL (≈ 15.8 µM).

The test system of the next assay is Staphylococcus aureus. The experiment in a line: Antimicrobial activity against Staphylococcus aureus HG-1 after 18 hrs by micro dilution method. As to conditions: HG-1, 18 h. The format is functional.
In turn, `O=C(O)CC(O)(CC(=O)N1CCN(c2cc3c(cc2F)c(=O)c(C(=O)O)cn3C2CC2)CC1)C(=O)O` (stereo unspecified) displayed a minimum inhibitory concentration (MIC) above 36 µg/mL.

The next assay relates to Staphylococcus aureus. As to the kind of experiment: Antimicrobial activity against Staphylococcus aureus (Oxford) NCTC 6571 after 18 hrs by micro dilution method. The format is functional. Conditions: (Oxford) NCTC 6571, 18 h.
Take `O=C(O)CC(O)(CC(=O)N1CCN(c2cc3c(cc2F)c(=O)c(C(=O)O)cn3C2CC2)CC1)C(=O)O` (stereo unspecified): the MIC turned out to be 16 µg/mL (≈ 31.7 µM).

Another assay has as its system Staphylococcus aureus. As to the kind of experiment: Antimicrobial activity against Staphylococcus aureus NCTC 13143 after 18 hrs by micro dilution method. Format: functional. Conditions: NCTC 13143, 18 h.
As for `O=C(O)CC(O)(CC(=O)N1CCN(c2cc3c(cc2F)c(=O)c(C(=O)O)cn3C2CC2)CC1)C(=O)O` (stereo unspecified), the MIC was above 36 µg/mL.
